What all share (assay type): biochemical
Common to all, as to settings: acetyl-CoA constant 10 mM, 40 mM Tris-HCl pH 8, 2 mM MgCl2, 37° C., 40 h

In assay [1] the target is T1, Gallus gallus (Chicken) HMG-CoA synthase, cytoplasmic, P23228, SEQ ID NO: 7 (Gallus gallus, UniProt P23228).
T1 construct: made in house; host or cells: E. coli BL21
T1 sequence (P23228 1-522): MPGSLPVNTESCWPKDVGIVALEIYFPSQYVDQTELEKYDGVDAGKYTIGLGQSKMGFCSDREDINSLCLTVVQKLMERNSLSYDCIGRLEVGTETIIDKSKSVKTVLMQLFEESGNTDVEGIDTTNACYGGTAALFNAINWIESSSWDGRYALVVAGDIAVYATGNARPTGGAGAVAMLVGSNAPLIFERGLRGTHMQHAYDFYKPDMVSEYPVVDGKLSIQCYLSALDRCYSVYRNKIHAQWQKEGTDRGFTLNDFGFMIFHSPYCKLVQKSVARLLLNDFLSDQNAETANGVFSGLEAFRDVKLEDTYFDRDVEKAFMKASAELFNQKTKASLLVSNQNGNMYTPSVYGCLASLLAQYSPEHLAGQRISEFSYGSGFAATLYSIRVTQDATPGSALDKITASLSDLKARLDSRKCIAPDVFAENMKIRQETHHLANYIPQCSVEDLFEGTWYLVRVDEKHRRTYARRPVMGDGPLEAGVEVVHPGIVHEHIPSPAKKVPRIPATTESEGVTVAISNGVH
Description: Kinetic parameters for the enzymatic reaction between acetyl-CoA and acetone, HMG-CoA synthase of Gallus gallus. As to the method: (§1) Kinetic Parameters for the Enzymatic Reaction Between Acetyl-CoA and Acetone in the Case of HMG Synthases
(§2) The kinetic parameters were measured using a variable concentration of acetone and a constant concentration of acetyl-CoA (10 mM) in following conditions:
(§3) The final pH was adjusted to 8.
(§4) The reaction was initiated by the addition of 3 mg of purified enzyme to the 1 ml reaction mixture. The mixture was then incubated without shaking at 37° C. for 40 h.
(§5) Analysis of 3-hydroxy-3-methylbutyrate Production
(§6) Thermochemical conditions leading to the decomposition of 3-hydroxy-3-methylbutyrate into isobutene were applied (Pressman et al., JACS, 1940, 2069-2080): the pH of the reaction mixtures was first adjusted to pH 4 using 6N HCl and the samples were then transferred into gas chromatography vials (Interchim). The vials were sealed and incubated at 110° C. for 4 hours, thus leading to the decomposition of 3-hydroxy-3-methylbutyrate into isobutene.
(§7) The calibration curve was prepared in the same conditions using commercial 3-hydroxy-3-methylbutyrate.
(§8) One milliliter of headspace gas was collected and injected into a HP5890 gas chromatograph (HP) equipped with a FID detector and a CP SilicaPlot® column (chromatography column; Varian). Commercial isobutene was used as reference. From the isobutene signal the amount of 3-hydroxy-3-methylbutyrate initially present in the sample was calculated.

Assay [2] concerns the target T2, Schizosaccharomyces pombe (Fission yeast) HMG-CoA synthase, cytoplasmic, P54874, SEQ ID NO: 2 (Schizosaccharomyces pombe, UniProt P54874).
T2 construct: made in house; host or cells: E. coli BL21
T2 sequence (P54874 1-447): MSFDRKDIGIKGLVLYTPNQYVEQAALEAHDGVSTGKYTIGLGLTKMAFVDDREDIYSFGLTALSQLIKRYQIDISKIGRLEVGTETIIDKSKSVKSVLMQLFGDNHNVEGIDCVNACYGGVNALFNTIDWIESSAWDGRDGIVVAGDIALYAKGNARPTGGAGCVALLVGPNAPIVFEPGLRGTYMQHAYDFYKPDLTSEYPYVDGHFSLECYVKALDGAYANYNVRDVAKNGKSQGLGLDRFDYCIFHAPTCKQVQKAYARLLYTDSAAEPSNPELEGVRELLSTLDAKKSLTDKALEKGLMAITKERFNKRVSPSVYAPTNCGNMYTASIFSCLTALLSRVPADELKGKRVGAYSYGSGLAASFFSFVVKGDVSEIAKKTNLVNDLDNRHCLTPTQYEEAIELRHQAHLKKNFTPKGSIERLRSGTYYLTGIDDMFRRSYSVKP
Description: Kinetic parameters for the enzymatic reaction between acetyl-CoA and acetone, HMG-CoA synthase of Schizosaccharomyces pombe. As to the method:
as §1, §2, §3, §4, §5, §6, §7, §8

Assay [3] addresses Staphylococcus epidermidis HMG-CoA synthase, Q8CN06, SEQ ID NO: 11 (Staphylococcus epidermidis, UniProt Q9FD76). As to the kind of experiment: Kinetic parameters for the enzymatic reaction between acetyl-CoA and acetone, HMG-CoA synthase of Staphylococcus epidermidis. The procedure:
as §1, §2, §3, §4, §5, §6, §7, §8

Staphylococcus epidermidis HMG-CoA synthase, Q8CN06, SEQ ID NO: 11, sequence (Q9FD76 entry or part of it, one chain of several): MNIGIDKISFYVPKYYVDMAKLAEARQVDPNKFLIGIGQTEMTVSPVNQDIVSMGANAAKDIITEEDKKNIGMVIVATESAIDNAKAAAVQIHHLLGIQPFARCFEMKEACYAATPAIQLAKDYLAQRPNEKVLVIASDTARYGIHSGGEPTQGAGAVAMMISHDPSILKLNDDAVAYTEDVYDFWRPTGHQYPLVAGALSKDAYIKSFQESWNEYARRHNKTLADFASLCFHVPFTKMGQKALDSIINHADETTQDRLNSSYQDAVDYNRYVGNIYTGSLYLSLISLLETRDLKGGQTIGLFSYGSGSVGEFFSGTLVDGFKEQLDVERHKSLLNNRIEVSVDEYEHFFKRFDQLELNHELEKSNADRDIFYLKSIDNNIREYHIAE

Take `CC(C)=O` [acetone]: the kcat is listed as 5 × 10^−4, sec^−1 in assay [1] (0-1 M acetone); 0.2 × 10^−4, sec^−1 in assay [2] (0-1 M acetone); 0.6 × 10^−4, sec^−1 in assay [3] (0-1 M acetone). Moreover, the kcat/KM is on record as 2 × 10^−6, mM^−1 × sec−^1 in assay [1] (acetone); 0.1 × 10^−6, mM^−1 × sec−^1 in assay [2] (acetone); 0.3 × 10^−6, mM^−1 × sec−^1 in assay [3] (acetone).

The values are drawn from patent US9556460B2, “Method for the production of 3-hydroxy-3-methylbutyric acid from acetone and an activated acetyl compound” (Scientist of Fortune, S.A., priority 2009, dated 2017).
